Data from PubChem BioAssay (NCI).
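Cells were grown in 96-well plates and exposed to each compound for 48 hours at five concentrations; endpoints were interpolated linearly between bracketing concentrations, or set to the highest concentration if not reached. TGI denotes the concentration required for complete inhibition of growth.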 *1 amine or outer side, *2 acyl side, *3 side chain or, on linkers, in order; H or OH if unused. Where a SMILES comes first, the peptide text is derived from it. [ ]: non-standard residue; d: D form. The star is where a group is joined. X31 = CC(=O)N(C)SCC(N[*:1])C(=O)[*:2]; Cbz = O=C(OCc1ccccc1)*; Bn = c1ccc(C*)cc1; For = O=C*

How the values were obtained:
Assay in all cases: growth of human tumour cells (NCI), 48 h
DLD-1 colon = test system: DLD-1 colon
DMS 114 small cell lung = test system: DMS 114 small cell lung
SNB-78 CNS = test system: SNB-78 CNS
M19-MEL melanoma = test system: M19-MEL melanoma
LXFL 529 NSCLC = test system: LXFL 529 NSCLC
XF 498 CNS = test system: XF 498 CNS
HOP-18 NSCLC = test system: HOP-18 NSCLC
RXF-631 renal = test system: RXF-631 renal
DMS 273 small cell lung = test system: DMS 273 small cell lung
KM20L2 colon = test system: KM20L2 colon
NCI/ADR-RES ovarian = test system: NCI/ADR-RES ovarian
T-47D breast = test system: T-47D breast
MDA-MB-435 = test system: MDA-MB-435
BT-549 breast = test system: BT-549 breast

## C[C@]12CCC(=O)C=C1CC[C@@H]1[C@@H]2CC[C@]2(C)C(=O)NC(=O)C[C@@H]12
DLD-1 colon
  TGI: > 100 µM
DMS 114 small cell lung
  TGI: > 100 µM
SNB-78 CNS
  TGI: > 100 µM
M19-MEL melanoma
  TGI: > 100 µM
LXFL 529 NSCLC
  TGI: > 100 µM
XF 498 CNS
  TGI: > 100 µM
HOP-18 NSCLC
  TGI: > 100 µM
RXF-631 renal
  TGI: > 100 µM
DMS 273 small cell lung
  TGI: > 100 µM
KM20L2 colon
  TGI: > 100 µM

## CNS(=O)(=O)NN(C)S(=O)(=O)c1ccccc1
DLD-1 colon
  TGI: > 100 µM
DMS 114 small cell lung
  TGI: > 100 µM
M19-MEL melanoma
  TGI: > 100 µM
LXFL 529 NSCLC
  TGI: > 100 µM
DMS 273 small cell lung
  TGI: > 100 µM
KM20L2 colon
  TGI: > 100 µM

## Cn1cc(C(=O)NCCC(=N)N)cc1NC(=O)C1=[N+](C)C=C(NC(=O)c2cccc(C(=O)NC3=CC(C(=O)Nc4cc(C(=O)NCCC(=N)N)cn4C)=[N+](C)C3)c2)C1
DLD-1 colon
  TGI: > 100 µM
DMS 114 small cell lung
  TGI: > 100 µM
M19-MEL melanoma
  TGI: > 100 µM
LXFL 529 NSCLC
  TGI: > 100 µM
XF 498 CNS
  TGI: > 100 µM
HOP-18 NSCLC
  TGI: > 100 µM
DMS 273 small cell lung
  TGI: > 100 µM
KM20L2 colon
  TGI: > 100 µM

## CC(=O)NC1C(OCc2ccccc2)OC(CO)C(O)C1OC(C)C(=O)NC(C(=O)N[C@@H](CCC(=O)NCCNCCNc1c2ccccc2nc2cccc([N+](=O)[O-])c12)C(N)=O)C(C)C (stereo not given in full)
NCI/ADR-RES ovarian
  TGI: > 100 µM
T-47D breast
  TGI: > 100 µM
MDA-MB-435
  TGI: 29.3 µM
BT-549 breast
  TGI: > 100 µM

## C=Cc1ccc(C)[n+](C[Si](C)(C)O[Si](C)(C)C)c1
DLD-1 colon
  TGI: > 100 µM
DMS 114 small cell lung
  TGI: > 100 µM
SNB-78 CNS
  TGI: > 100 µM
LXFL 529 NSCLC
  TGI: > 100 µM
RXF-631 renal
  TGI: > 100 µM
DMS 273 small cell lung
  TGI: > 100 µM
KM20L2 colon
  TGI: > 100 µM

## CC(=O)OCC1=C(CCC#N)N2C(=O)C(NC(=O)Cc3cccs3)C2S(=O)C1 (stereo not given)
DLD-1 colon
  TGI: > 100 µM
DMS 114 small cell lung
  TGI: > 100 µM
SNB-78 CNS
  TGI: > 100 µM
M19-MEL melanoma
  TGI: > 100 µM
XF 498 CNS
  TGI: > 100 µM
HOP-18 NSCLC
  TGI: > 100 µM
DMS 273 small cell lung
  TGI: > 100 µM
KM20L2 colon
  TGI: > 100 µM

## CCN(CC)c1c(C(=O)/C=C/c2ccc(OC)cc2)c(-c2ccccc2)nn(C)c1=O
DLD-1 colon
  TGI: 71.3 µM
DMS 114 small cell lung
  TGI: 32.3 µM
SNB-78 CNS
  TGI: > 100 µM
M19-MEL melanoma
  TGI: > 100 µM
LXFL 529 NSCLC
  TGI: > 100 µM
HOP-18 NSCLC
  TGI: 51.7 µM
RXF-631 renal
  TGI: > 100 µM
DMS 273 small cell lung
  TGI: 5.13 µM
KM20L2 colon
  TGI: 33.1 µM

## Oc1ccccc1/C=C/c1csnn1
DLD-1 colon
  TGI: > 100 µM
DMS 114 small cell lung
  TGI: > 100 µM
SNB-78 CNS
  TGI: > 100 µM
M19-MEL melanoma
  TGI: > 100 µM
LXFL 529 NSCLC
  TGI: > 100 µM
XF 498 CNS
  TGI: > 100 µM
HOP-18 NSCLC
  TGI: > 100 µM
RXF-631 renal
  TGI: > 100 µM
DMS 273 small cell lung
  TGI: > 100 µM
KM20L2 colon
  TGI: > 100 µM

## COC(=O)C1(C(=O)OC)Cc2ccc(OC)cc2C2=C1C(=O)c1ccccc1C2=O
NCI/ADR-RES ovarian
  TGI: > 28.4 µM
T-47D breast
  TGI: 6.9 µM
MDA-MB-435
  TGI: 3.52 µM
BT-549 breast
  TGI: 37.3 µM

## CC[C@]1(Cc2ccc(OC)c(OC)c2)C=[N+]([O-])O[C@H](OC2CCCC2(c2ccccc2)c2ccccc2)[C@@H]1OC(=O)c1ccccc1 (stereo not given in full)
NCI/ADR-RES ovarian
  TGI: > 62.7 µM
T-47D breast
  TGI: > 27.2 µM
MDA-MB-435
  TGI: > 46.3 µM
BT-549 breast
  TGI: > 100 µM

## CC(=O)N(C)SCC(NC(=O)C(Cc1ccccc1)NC(=O)OCc1ccccc1)C(=O)NC(Cc1ccccc1)C(=O)NC(Cc1cn(C=O)c2ccccc12)C(=O)NC(CCCCNC(=O)OCc1ccccc1)C(=O)NC(C(=O)NC(CSN(C)C(C)=O)C(=O)NC(C(N)=O)C(C)OCc1ccccc1)C(C)OCc1ccccc1 (stereo not given) (Cbz-F[X31]FW(For)K(Cbz)T(Bn)[X31]T(Bn)-NH2; configuration not given here)
NCI/ADR-RES ovarian
  TGI: > 100 µM
T-47D breast
  TGI: > 100 µM
MDA-MB-435
  TGI: > 100 µM
BT-549 breast
  TGI: 68.1 µM

## Cc1cc2c(cc1-c1cc3c(cc1C)C(C(C)C)=C(O)C(=O)/C3=C\Nc1c3ccccc3nc3ccccc13)/C(=C/Nc1c3ccccc3nc3ccccc13)C(=O)C(O)=C2C(C)C
NCI/ADR-RES ovarian
  TGI: 12.9 µM
T-47D breast
  TGI: 26.8 µM
MDA-MB-435
  TGI: 17.1 µM
BT-549 breast
  TGI: 20.7 µM

## C=C(C)C1=CCC[C@]2(C1)N=C(OC)[C@@H](C(C)C)N=C2OC
NCI/ADR-RES ovarian
  TGI: > 100 µM
T-47D breast
  TGI: > 100 µM
MDA-MB-435
  TGI: > 100 µM
BT-549 breast
  TGI: > 100 µM

## C=CCN1C(=O)/C(=C/c2ccco2)N=C1SC/C=C/C
NCI/ADR-RES ovarian
  TGI: > 100 µM
T-47D breast
  TGI: > 100 µM
MDA-MB-435
  TGI: > 100 µM
BT-549 breast
  TGI: > 100 µM

## NC1=C(NC(=O)Cc2ccc(F)cc2)C(=O)c2ccccc2C1=O
DLD-1 colon
  TGI: > 71.4 µM
DMS 114 small cell lung
  TGI: 27 µM
SNB-78 CNS
  TGI: 65.1 µM
M19-MEL melanoma
  TGI: 45.4 µM
LXFL 529 NSCLC
  TGI: > 100 µM
XF 498 CNS
  TGI: > 100 µM
RXF-631 renal
  TGI: > 100 µM
DMS 273 small cell lung
  TGI: > 100 µM
KM20L2 colon
  TGI: > 100 µM

## CC(C)Cn1cnc2c(NCC(C)O)nc3ccccc3c21 (stereo not given)
NCI/ADR-RES ovarian
  TGI: > 100 µM
T-47D breast
  TGI: > 100 µM
MDA-MB-435
  TGI: > 100 µM
BT-549 breast
  TGI: > 100 µM

## O=c1oc2ccc3ccccc3c2cc1-c1cn2ccccc2n1
NCI/ADR-RES ovarian
  TGI: > 100 µM
T-47D breast
  TGI: > 100 µM
MDA-MB-435
  TGI: > 100 µM
BT-549 breast
  TGI: > 100 µM

## COc1ccc(Nc2nnc(-c3nsc4ccccc34)s2)cc1
DMS 114 small cell lung
  TGI: > 100 µM
SNB-78 CNS
  TGI: > 100 µM
NCI/ADR-RES ovarian
  TGI: > 100 µM
M19-MEL melanoma
  TGI: > 100 µM
LXFL 529 NSCLC
  TGI: > 100 µM
HOP-18 NSCLC
  TGI: 2.66 µM
DMS 273 small cell lung
  TGI: > 100 µM
T-47D breast
  TGI: > 100 µM
MDA-MB-435
  TGI: > 100 µM
KM20L2 colon
  TGI: > 100 µM

## CC(=O)C(=C(c1ccccc1)c1ccccc1)c1ccccc1
NCI/ADR-RES ovarian
  TGI: > 100 µM
T-47D breast
  TGI: > 100 µM
MDA-MB-435
  TGI: > 100 µM
BT-549 breast
  TGI: > 100 µM

## COc1cc2c(oc(=O)c3c4oc([Si](C)(C)C)cc4cc(OC)c23)c2cccc(OCc3ccccc3)c12
DLD-1 colon
  TGI: > 100 µM
DMS 114 small cell lung
  TGI: > 100 µM
SNB-78 CNS
  TGI: 91.6 µM
M19-MEL melanoma
  TGI: > 100 µM
LXFL 529 NSCLC
  TGI: > 61.8 µM
XF 498 CNS
  TGI: 27 µM
HOP-18 NSCLC
  TGI: 63.8 µM
DMS 273 small cell lung
  TGI: 72.8 µM
KM20L2 colon
  TGI: > 100 µM

## CCOC(=O)/C(C#N)=C\c1ccc(N(CCC(=O)O)CCC(=O)O)c(I)c1
NCI/ADR-RES ovarian
  TGI: > 10 µM
T-47D breast
  TGI: > 10 µM
MDA-MB-435
  TGI: > 10 µM
BT-549 breast
  TGI: > 10 µM

## Nc1ncnn2c(C3OC(CO)C(O)C3O)ccc12 (stereo not given)
NCI/ADR-RES ovarian
  TGI: 2.27 µM
T-47D breast
  TGI: 6.93 µM
MDA-MB-435
  TGI: 0.376 µM
BT-549 breast
  TGI: 0.789 µM

## COC(=O)C1(CCC(C)=O)CCCCCC1=O (stereo not given)
NCI/ADR-RES ovarian
  TGI: > 100 µM
T-47D breast
  TGI: > 100 µM
MDA-MB-435
  TGI: > 100 µM
BT-549 breast
  TGI: > 100 µM

## O=S1(=O)N=C(SCc2ccccc2)N(c2ccccc2)c2ccncc21
NCI/ADR-RES ovarian
  TGI: 91.1 µM
T-47D breast
  TGI: > 100 µM
MDA-MB-435
  TGI: > 100 µM
BT-549 breast
  TGI: 94.4 µM

## CCCCCCCCCCCCCCCCCCNC(=O)C(N)Cc1ccc(OCc2ccccc2)cn1 (stereo not given)
NCI/ADR-RES ovarian
  TGI: 38.4 µM
T-47D breast
  TGI: 50.7 µM
MDA-MB-435
  TGI: 32.5 µM
BT-549 breast
  TGI: 57.3 µM

## c1ccc2c(c1)cc(C1NCCc3[nH]cnc31)c1ccccc12 (stereo not given)
DLD-1 colon
  TGI: > 100 µM
DMS 114 small cell lung
  TGI: > 64.3 µM
SNB-78 CNS
  TGI: > 100 µM
M19-MEL melanoma
  TGI: > 59.5 µM
LXFL 529 NSCLC
  TGI: > 63.5 µM
XF 498 CNS
  TGI: 79 µM
HOP-18 NSCLC
  TGI: > 100 µM
RXF-631 renal
  TGI: > 100 µM
DMS 273 small cell lung
  TGI: 87.9 µM
KM20L2 colon
  TGI: > 100 µM

## NC(N)=N/N=C/c1c(-c2ccc(Cl)cc2)nc2sccn12
NCI/ADR-RES ovarian
  TGI: 23.3 µM
T-47D breast
  TGI: 3.22 µM
MDA-MB-435
  TGI: 3.43 µM
BT-549 breast
  TGI: 12 µM
